# Assays:
# MATE1 [1] = biological target: T1, MATE1 (Homo sapiens, UniProt Q96FL8); experiment: Uptake assay in HEK-MATE1 vs HEK-VC cells (pH 8.0); conditions: for Uptake in HEK-MATE1 cells compared to HEK-VC cells: 10 μM substrate; for Uptake in HEK-MATE1 cells compared to HEK-VC cells (in words) / Effect of cimetidine on uptake in HEK-MATE1 cells: 10 and 100 μM substrate; for Uptake in HEK-MATE1 cells compared to HEK-VC cells (in words): pH 8.0; for Effect of cimetidine on uptake in HEK-MATE1 cells: cimetidine 50 μM; for In Vitro MATE1 (substrate class): summary of in vitro uptake/transport results
# T1 sequence (Q96FL8 1-570): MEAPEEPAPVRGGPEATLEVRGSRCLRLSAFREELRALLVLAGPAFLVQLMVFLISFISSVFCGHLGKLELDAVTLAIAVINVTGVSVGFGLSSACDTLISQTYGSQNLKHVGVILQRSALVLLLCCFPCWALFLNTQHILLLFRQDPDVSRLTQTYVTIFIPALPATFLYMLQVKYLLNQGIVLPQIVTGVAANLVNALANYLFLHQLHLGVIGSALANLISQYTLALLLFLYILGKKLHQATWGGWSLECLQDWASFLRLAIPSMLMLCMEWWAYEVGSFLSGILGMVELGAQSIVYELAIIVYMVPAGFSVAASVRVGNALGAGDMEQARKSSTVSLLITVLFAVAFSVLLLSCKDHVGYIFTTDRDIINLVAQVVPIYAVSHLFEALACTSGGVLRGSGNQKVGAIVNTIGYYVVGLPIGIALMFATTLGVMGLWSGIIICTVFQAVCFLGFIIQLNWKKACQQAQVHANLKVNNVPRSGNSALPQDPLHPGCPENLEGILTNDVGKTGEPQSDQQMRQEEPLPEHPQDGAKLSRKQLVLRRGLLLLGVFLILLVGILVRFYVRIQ
# Description: (§1) Transport experiments were performed 48 hours after seeding.
# (§2) The intracellular background of all 5 compounds in HEK cells at the beginning of the uptake experiments was investigated 48 hours after seeding without incubation with transport buffer (ie, 0 minutes). […] Then, cells were lysed with ice-cold 80% MeOH containing the aforementioned recovery standards. In addition, the impact of a 5-minute incubation period with transport buffer without added substance was investigated.
# human OATP1B3 = biological target: T2, human OATP1B3 (Homo sapiens, UniProt Q9NPD5); experiment: Uptake assay in HEK-OATP1B3 vs HEK-VC cells; format: in vitro ADME
# T2 construct: expressed in transfected cells; host or cells: HEK293 (HEK-OATP1B3)
# T2 sequence (Q9NPD5 1-702): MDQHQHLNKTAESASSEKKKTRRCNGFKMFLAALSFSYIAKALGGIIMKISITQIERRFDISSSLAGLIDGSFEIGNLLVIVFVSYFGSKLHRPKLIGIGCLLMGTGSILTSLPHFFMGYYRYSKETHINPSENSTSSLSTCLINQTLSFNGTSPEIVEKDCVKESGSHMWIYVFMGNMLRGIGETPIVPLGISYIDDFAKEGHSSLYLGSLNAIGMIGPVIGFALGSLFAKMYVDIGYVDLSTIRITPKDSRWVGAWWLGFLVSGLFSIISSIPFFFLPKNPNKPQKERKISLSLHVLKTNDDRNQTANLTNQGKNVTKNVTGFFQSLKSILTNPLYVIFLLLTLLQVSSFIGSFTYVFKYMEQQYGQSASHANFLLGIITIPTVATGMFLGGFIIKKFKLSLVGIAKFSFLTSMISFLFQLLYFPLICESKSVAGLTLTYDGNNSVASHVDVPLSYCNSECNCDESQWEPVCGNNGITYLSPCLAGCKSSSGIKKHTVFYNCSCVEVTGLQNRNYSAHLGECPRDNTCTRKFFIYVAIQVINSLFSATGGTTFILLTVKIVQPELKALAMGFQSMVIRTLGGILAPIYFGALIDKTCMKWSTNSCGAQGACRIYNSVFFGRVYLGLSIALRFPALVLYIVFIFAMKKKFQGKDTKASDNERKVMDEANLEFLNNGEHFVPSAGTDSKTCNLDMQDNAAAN
# Description: as §1
# MATE1 [2] = biological target: T1, MATE1; experiment: Intracellular accumulation and transcellular transport in MDCK-MATE1 monolayers; conditions: for Intracellular accumulation in MDCK-MATE1 cells compared to MDCK-VC cells / Transcellular basal to apical transport in MDCK-MATE1 cells vs MDCK-VC cells: 10 μM basal, 60 minutes
# Description: The intracellular accumulation and transcellular, basal to apical transport experiments were performed as previously described in monolayers of polarized single-transfected (MDCK-OCT2, MDCK-MATE1) and double-transfected (MDCK-OCT2-MATE1) MDCK cells, MDCK control cells (MDCK-VC), or Caco-2 cells.[22] In brief, cell monolayers were grown in cell culture inserts on porous membranes. For MDCK-VC, MDCK-OCT2 and Caco-2, 5 × 10^5 cells were used per well; for MDCK-OCT2-MATE1, 6 × 10^5 cells were used, and for MDCK-MATE1, 8 × 10^5 cells were used per well. Cells were grown to confluence for 72 hours, induced with 10 mM sodium butyrate 48 hours after seeding for 24 hours (MDCK only), and subsequently used for transport experiments.
# In general, after the cell culture medium was removed from both sides of the monolayers, cells were washed at 37 °C with transport buffer of the same composition as described in the previous section. Experiments were started by replacing the medium in the basal compartment with medium containing the putative biomarkers or [^3H]-labeled positive control substrates. The pH of the buffer on the basal side was 7.3 and 6.5 on the apical side for MDCK cells, whereas it was 7.3 on either side for Caco-2 cells. Cells were incubated at 37 °C and the buffer from the apical compartment was taken after 60 minutes for MDCK cells and after 240 minutes for Caco-2 cells. In case of Caco-2 cells, endogenous P-gp was inhibited by adding 2 μM of valspodar to the basal compartment. To measure the cellular accumulation of the test compounds, the remaining medium was removed at the end of the incubation period and the cell monolayers were rapidly rinsed 3 times with ice-cold 0.9% NaCl in water. Filters were detached from the chambers and placed into 500 μL of 80% MeOH containing the aforementioned recovery standards to lyse cells for subsequent LC-MS analysis or into 600 μL of 0.2% SDS (control experiments only). In the control experiments, the radioactivity of the collected apical medium and the solubilized cell monolayers and protein concentrations of the cell lysates were measured in the same way as described for the experiments with HEK cells.
# as §2
# [3] = cited from earlier work
# [4] = 5 minutes, pH 8.0, HEK-VC set to 100%
Uptake in HEK-MATE1 cells compared to HEK-VC cells (MATE1 [1]; [4]),Uptake in HEK-MATE1 cells compared to HEK-VC cells (in words) (MATE1 [1]; 5 minutes),Effect of cimetidine on uptake in HEK-MATE1 cells (MATE1 [1]; 5 minutes),In Vitro MATE1 (substrate class) (MATE1 [1]),Intracellular accumulation in MDCK-MATE1 cells compared to MDCK-VC cells (MATE1 [2]),Intracellular background in HEK-MATE1 cells compared to HEK-VC cells (MATE1 [1]; 0 minutes and 5 minutes without added substance),Transcellular basal to apical transport in MDCK-MATE1 cells vs MDCK-VC cells (MATE1 [2]),"Uptake ratio in HEK-MATE1 cells compared to HEK-VC cells (MATE1 [1]; 100 μM substrate, 5 minutes, pH 8.0, HEK-VC set to 100%)",SMILES,In Vitro OATP1B3 (substrate class) (human OATP1B3),Mean urinary excretion ([3]; healthy individuals),Intracellular background in MDCK-MATE1 cells (MATE1 [2]; 60 minutes without added substance),Urinary excretion ([3]; healthy subjects),"Renal clearance ([3]; healthy volunteers, after oral administration of 400 mg tyramine)"
,significantly lower,,+,significant reduction,lower,not statistically significant,,"C[N+](C)(C)CCCCC(=O)[O-] [5-Amino valeric acid betaine, 5-amino valeric acid betaine]","0 (significant uptake in HEK cells, but less than 300% of respective control cells or significant reduction of transcellular transport in Caco-2 cells, but reduction not below 50% of respective control without valspodar)",,no 5-amino valeric acid betaine could be detected,,
2469%,significantly higher,significantly reduced,++,no significant difference,,considerably increased,1461%,"NCCc1c[nH]c2ccc(O)cc12 [Serotonin, serotonin]",-,,,0.21 ± 0.08 nmol/mL/mg creatinine,
545%,significantly higher,significantly reduced,++,no significant difference,,,,"NCCc1ccc(O)cc1 [Tyramine, tyramine]",-,,,,260 mL/min

SMILES,Uptake in HEK-MATE1 cells compared to HEK-VC cells (MATE1 [1]; [4]),Uptake in HEK-MATE1 cells compared to HEK-VC cells (in words) (MATE1 [1]; 5 minutes),Effect of cimetidine on uptake in HEK-MATE1 cells (MATE1 [1]; 5 minutes),In Vitro MATE1 (substrate class) (MATE1 [1]),Intracellular accumulation in MDCK-MATE1 cells compared to MDCK-VC cells (MATE1 [2]),Intracellular background in HEK-MATE1 cells compared to HEK-VC cells (MATE1 [1]; 0 minutes and 5 minutes without added substance),Transcellular basal to apical transport in MDCK-MATE1 cells vs MDCK-VC cells (MATE1 [2]),"Uptake ratio in HEK-MATE1 cells compared to HEK-VC cells (MATE1 [1]; 100 μM substrate, 5 minutes, pH 8.0, HEK-VC set to 100%)",In Vitro OATP1B3 (substrate class) (human OATP1B3),Mean urinary excretion ([3]; healthy individuals),Intracellular background in MDCK-MATE1 cells (MATE1 [2]; 60 minutes without added substance),Urinary excretion ([3]; healthy subjects),"Renal clearance ([3]; healthy volunteers, after oral administration of 400 mg tyramine)"
"Cn1cnc(CCN)c1 [1-Methylhistamine, 1-methylhistamine]",778%,significantly higher,significantly reduced,++,no significant difference,,,,-,around 120 μg/g creatinine,,,
